Assay results: patent publication US6770596B1, “Fused tricyclic compounds, process for their preparation, and herbicidal compositions containing them” (Ishihara Sangyo Kaisha Ltd., priority 2002, dated 2004)

What was measured:
Type in all cases: in vivo
[1] = test system: redroot pigweed (Amaranthus retroflexus, AMR); test: Pre-emerge test, redroot pigweed; conditions: 250 g ai/ha, 14 days after application, rating scale 0-100 (0 no damage, 100 complete death)
In short: (§1)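 Sandy loam soil mix, 10 cm pots, sowing 1 d before treatment; spray volume 187 l/ha, rates 8–1000 g ai/ha in acetone; 0–100 visual rating at 14 d.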

[2] = test system: velvetleaf (Abutilon theophrasti, ABT); test: Pre-emerge test, velvetleaf; conditions: 250 g ai/ha, 14 days after application, rating scale 0-100 (0 no damage, 100 complete death)
In short: as §1

[3] = test system: sicklepod (Cassia obtusifolia, CAO); test: Pre-emerge test, sicklepod; conditions: 250 g ai/ha, 14 days after application, rating scale 0-100 (0 no damage, 100 complete death)
In short: as §1

[4] = test system: ivyleaf morningglory (Ipomoea hederacea, IPH); test: Pre-emerge test, ivyleaf morningglory; conditions: 250 g ai/ha, 14 days after application, rating scale 0-100 (0 no damage, 100 complete death)
In short: as §1

[5] = test system: lambsquarters (Chenopodium album, CHA); test: Pre-emerge test, lambsquarters; conditions: 250 g ai/ha, 14 days after application, rating scale 0-100 (0 no damage, 100 complete death)
In short: as §1

[6] = test system: common ragweed (Ambrosia artemisiifolia L., AML); test: Pre-emerge test, common ragweed; conditions: 250 g ai/ha, 14 days after application, rating scale 0-100 (0 no damage, 100 complete death)
In short: as §1

[7] = test system: cocklebur (Xanthium strumariunt, XAS); test: Pre-emerge test, cocklebur; conditions: 250 g ai/ha, 14 days after application, rating scale 0-100 (0 no damage, 100 complete death)
In short: as §1

[8] = test system: green foxtail (Setaria viridis, SEV); test: Pre-emerge test, green foxtail; conditions: 250 g ai/ha, 14 days after application, rating scale 0-100 (0 no damage, 100 complete death)
In short: as §1

[9] = test system: barnyardgrass (Echinachloa crus-galli, ECC); test: Pre-emerge test, barnyardgrass; conditions: 250 g ai/ha, 14 days after application, rating scale 0-100 (0 no damage, 100 complete death)
In short: as §1

[10] = test system: johnsongrass (Sorghum halepense, SOH); test: Pre-emerge test, johnsongrass; conditions: 250 g ai/ha, 14 days after application, rating scale 0-100 (0 no damage, 100 complete death)
In short: as §1

[11] = test system: large crabgrass (Digitaria sanguinalis, DIS); test: Pre-emerge test, large crabgrass; conditions: 250 g ai/ha, 14 days after application, rating scale 0-100 (0 no damage, 100 complete death)
In short: as §1

[12] = test system: field corn (Zea mays L., var. Dekalb 535, CORN); test: Pre-emerge test, crop damage field corn
In short: (§2)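 Greenhouse pre-emergence test in 10 cm pots of sandy loam soil mix; seeds sown one day before treatment. Compounds in acetone were track-sprayed at 187 l/ha, 8–1000 g ai/ha. Phytotoxicity rated 0–100 (0 = no damage, 100 = complete death) at 14 days after application.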

[13] = test system: soybean (Glycine max L., var. Pella 86, SOY); test: Pre-emerge test, crop damage soybean
In short: as §2

[14] = test system: upland rice (Oryza sp., var.Tebonnet, RICE); test: Pre-emerge test, crop damage upland rice
In short: as §2

[15] = test system: wheat (Triticum aestivum); test: Pre-emerge test, crop damage wheat
In short: as §2

[16] = test system: redroot pigweed (Amaranthus retroflexus, AMR); test: Post-emerge test, redroot pigweed; conditions: 250 g ai/ha, 14 days after application, rating scale 0-100 (0 no damage, 100 complete death)
In short: (§3)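 Greenhouse pot plants in sandy loam were sown 8-21 days before treatment and sprayed at about the 2-3 leaf stage. The spray was acetone solution plus 0.25% v/v non-ionic surfactant, 187 l/ha, at 8-1000 g ai/ha from a track sprayer. Phytotoxicity was scored 0-100 (0 no damage, 100 all plants dead) 14 days later.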

[17] = test system: velvetleaf (Abutilon theophrasti, ABT); test: Post-emerge test, velvetleaf; conditions: 250 g ai/ha, 14 days after application, rating scale 0-100 (0 no damage, 100 complete death)
In short: as §3

[18] = test system: sicklepod (Cassia obtusifolia, CAO); test: Post-emerge test, sicklepod; conditions: 250 g ai/ha, 14 days after application, rating scale 0-100 (0 no damage, 100 complete death)
In short: as §3

[19] = test system: ivyleaf morningglory (Ipomoea hederacea, IPH); test: Post-emerge test, ivyleaf morningglory; conditions: 250 g ai/ha, 14 days after application, rating scale 0-100 (0 no damage, 100 complete death)
In short: as §3

[20] = test system: lambsquarters (Chenopodium album, CHA); test: Post-emerge test, lambsquarters; conditions: 250 g ai/ha, 14 days after application, rating scale 0-100 (0 no damage, 100 complete death)
In short: as §3

[21] = test system: common ragweed (Ambrosia artemisiifolia L., AML); test: Post-emerge test, common ragweed; conditions: 250 g ai/ha, 14 days after application, rating scale 0-100 (0 no damage, 100 complete death)
In short: as §3

[22] = test system: cocklebur (Xanthium strumariunt, XAS); test: Post-emerge test, cocklebur; conditions: 250 g ai/ha, 14 days after application, rating scale 0-100 (0 no damage, 100 complete death)
In short: as §3

[23] = test system: green foxtail (Setaria viridis, SEV); test: Post-emerge test, green foxtail; conditions: 250 g ai/ha, 14 days after application, rating scale 0-100 (0 no damage, 100 complete death)
In short: as §3

[24] = test system: barnyardgrass (Echinachloa crus-galli, ECC); test: Post-emerge test, barnyardgrass; conditions: 250 g ai/ha, 14 days after application, rating scale 0-100 (0 no damage, 100 complete death)
In short: as §3

[25] = test system: johnsongrass (Sorghum halepense, SOH); test: Post-emerge test, johnsongrass; conditions: 250 g ai/ha, 14 days after application, rating scale 0-100 (0 no damage, 100 complete death)
In short: as §3

[26] = test system: large crabgrass (Digitaria sanguinalis, DIS); test: Post-emerge test, large crabgrass; conditions: 250 g ai/ha, 14 days after application, rating scale 0-100 (0 no damage, 100 complete death)
In short: as §3

[27] = test system: field corn (Zea mays L., var. Dekalb 535, CORN); test: Post-emerge test, crop damage field corn
In short: as §3

[28] = test system: soybean (Glycine max L., var. Pella 86, SOY); test: Post-emerge test, crop damage soybean
In short: as §3

[29] = test system: upland rice (Oryza sp., var.Tebonnet, RICE); test: Post-emerge test, crop damage upland rice
In short: as §3

[30] = test system: wheat (Triticum aestivum); test: Post-emerge test, crop damage wheat
In short: as §3

[31] = var. Dekalb 535, Zea mays (field corn), in vivo, 14 days
[32] = var. Pella 86, Glycine max (soybean), in vivo, 14 days
[33] = var. Tebonnet, Oryza sp. (upland rice), in vivo, 14 days
[34] = Triticum aestivum (wheat), in vivo, 14 days
[35] = pre-emerge, 250 g ai/ha, 14 days after application, rating scale 0-100 (0 no damage, 100 complete death)
[36] = post-emerge, 250 g ai/ha, 14 days after application, rating scale 0-100 (0 no damage, 100 complete death)

Structure (SMILES)	Pre-emerge Herbicidal Activity AMR (phytotoxicity rating) [1]	Pre-emerge Herbicidal Activity ABT (phytotoxicity rating) [2]	Pre-emerge Herbicidal Activity CAO (phytotoxicity rating) [3]	Pre-emerge Herbicidal Activity IPH (phytotoxicity rating) [4]	Pre-emerge Herbicidal Activity CHA (phytotoxicity rating) [5]	Pre-emerge Herbicidal Activity AML (phytotoxicity rating) [6]	Pre-emerge Herbicidal Activity XAS (phytotoxicity rating) [7]	Pre-emerge Herbicidal Activity SEV (phytotoxicity rating) [8]	Pre-emerge Herbicidal Activity ECC (phytotoxicity rating) [9]	Pre-emerge Herbicidal Activity SOH (phytotoxicity rating) [10]	Pre-emerge Herbicidal Activity DIS (phytotoxicity rating) [11]	Post-emerge Herbicidal Activity AMR (phytotoxicity rating) [16]	Post-emerge Herbicidal Activity ABT (phytotoxicity rating) [17]	Post-emerge Herbicidal Activity CAO (phytotoxicity rating) [18]	Post-emerge Herbicidal Activity IPH (phytotoxicity rating) [19]	Post-emerge Herbicidal Activity CHA (phytotoxicity rating) [20]	Post-emerge Herbicidal Activity AML (phytotoxicity rating) [21]	Post-emerge Herbicidal Activity XAS (phytotoxicity rating) [22]	Post-emerge Herbicidal Activity SEV (phytotoxicity rating) [23]	Post-emerge Herbicidal Activity ECC (phytotoxicity rating) [24]	other results
Cn1nc(-c2c(F)cc3c4c2NC(=O)CN4C(=O)CO3)c(Cl)c1OC(F)F [1-25, 8-[4-Chloro-5-(difluoromethoxy)-1-methyl-1H-pyrazole-3-yl)-9-fluoro-5H-pyrazino[1,2,3-de]-1,4-benzoxazine-3,6(2H, 7H)-dione]	100	100	100	100	100	100	95	100	100	100	100	100	100	100	100	100	99	100	100	95	Pre-emerge crop damage CORN (phytotoxicity rating) [12, 31]: 99; Pre-emerge crop damage SOY (phytotoxicity rating) [13, 32]: 40; Pre-emerge crop damage RICE (phytotoxicity rating) [14, 33]: 85; Pre-emerge crop damage WHEAT (phytotoxicity rating) [15, 34]: 85; Post-emerge Herbicidal Activity SOH (phytotoxicity rating) [25]: 60; Post-emerge Herbicidal Activity DIS (phytotoxicity rating) [26]: 60; Post-emerge crop damage CORN (phytotoxicity rating) [27, 31]: 35; Post-emerge crop damage SOY (phytotoxicity rating) [28, 32]: 100; Post-emerge crop damage RICE (phytotoxicity rating) [29, 33]: 100; Post-emerge crop damage WHEAT (phytotoxicity rating) [30, 34]: 60
Cn1nc(-c2c(F)cc3c4c2NC(=O)C(C)(C)N4C(=O)CO3)c(Cl)c1C(F)(F)F [1-15, 8-[4-Chloro-1-methyl-5-(trifluoromethyl)-1H-pyrazol-3-yl]-5,5-dimethyl-9-fluoro-5H-pyrazino[1,2,3-de]-1,4-benzoxazine-3,6(2H, 7H)-dione]	100	100	100	100	100	100	100	100	100	100	100	100	100	99	100	100	98	100	99	99	Pre-emerge crop damage CORN (phytotoxicity rating) [12, 31]: 60; Pre-emerge crop damage SOY (phytotoxicity rating) [13, 32]: 50; Pre-emerge crop damage RICE (phytotoxicity rating) [14, 33]: 40; Pre-emerge crop damage WHEAT (phytotoxicity rating) [15, 34]: 90; Post-emerge Herbicidal Activity SOH (phytotoxicity rating) [25]: 55; Post-emerge Herbicidal Activity DIS (phytotoxicity rating) [26]: 50; Post-emerge crop damage CORN (phytotoxicity rating) [27, 31]: 35; Post-emerge crop damage SOY (phytotoxicity rating) [28, 32]: 100; Post-emerge crop damage RICE (phytotoxicity rating) [29, 33]: 80; Post-emerge crop damage WHEAT (phytotoxicity rating) [30, 34]: 50
CC1C(=O)Nc2c3c(cc(F)c2-n2c(=O)cc(C(F)(F)F)n(C)c2=O)OCC(=O)N31 (stereo not drawn) [1-2]	100	100	99	100	100	100	99	100	100	100	100	90	100	0	90	80	65	75	60	60	Pre-emerge crop damage CORN (phytotoxicity rating) [12, 35]: 100; Pre-emerge crop damage SOY (phytotoxicity rating) [13, 35]: 99; Pre-emerge crop damage RICE (phytotoxicity rating) [14, 35]: 100; Pre-emerge crop damage WHEAT (phytotoxicity rating) [15, 35]: 100; Post-emerge Herbicidal Activity SOH (phytotoxicity rating) [25]: 20; Post-emerge Herbicidal Activity DIS (phytotoxicity rating) [26]: 0; Post-emerge crop damage CORN (phytotoxicity rating) [27, 36]: 10; Post-emerge crop damage SOY (phytotoxicity rating) [28, 36]: 50; Post-emerge crop damage RICE (phytotoxicity rating) [29, 36]: 70; Post-emerge crop damage WHEAT (phytotoxicity rating) [30, 36]: 25
O=C1Nc2c(-c3ncc(C(F)(F)F)cc3Cl)c(F)cc3c2N(C(=O)CO3)C1c1ccccc1 (stereo not drawn) [1-68]	100	99	40	40	100	65	30	100	98	99	100	100	80	0	60	100	40	60	0	0	Pre-emerge crop damage CORN (phytotoxicity rating) [12, 35]: 5; Pre-emerge crop damage SOY (phytotoxicity rating) [13, 35]: 5; Pre-emerge crop damage RICE (phytotoxicity rating) [14, 35]: 0; Pre-emerge crop damage WHEAT (phytotoxicity rating) [15, 35]: 30; Post-emerge Herbicidal Activity SOH (phytotoxicity rating) [25]: 0; Post-emerge Herbicidal Activity DIS (phytotoxicity rating) [26]: 0; Post-emerge crop damage CORN (phytotoxicity rating) [27, 36]: 10; Post-emerge crop damage SOY (phytotoxicity rating) [28, 36]: 10; Post-emerge crop damage RICE (phytotoxicity rating) [29, 36]: 0; Post-emerge crop damage WHEAT (phytotoxicity rating) [30, 36]: 0
